Target: Translocator protein (Rattus norvegicus, UniProt P16257)
Assay: Inhibitory activity against specific binding of [3H]-CB 34 to peripheral benzodiazepine receptor in rat cortical membranes was evaluated
Type: cell membranes, Membrane

Chain of Translocator protein (P16257 whole entry, looked up): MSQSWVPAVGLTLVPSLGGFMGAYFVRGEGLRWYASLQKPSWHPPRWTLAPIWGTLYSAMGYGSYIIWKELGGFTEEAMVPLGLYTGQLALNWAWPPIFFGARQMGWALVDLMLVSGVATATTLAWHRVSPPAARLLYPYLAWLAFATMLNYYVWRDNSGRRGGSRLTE

Compound | IC50 [nM]
O=C(NCc1ccccc1)c1cc(-c2ccccc2)c2ccccc2c1 | 2700
C#CCN(C)C(=O)c1nc2ccccc2c(-c2ccccc2)c1C | 32
CCN(Cc1ccccc1)Cc1c(C(=O)N(C)Cc2ccccc2)nc2ccccc2c1-c1ccccc1 | 13
O=C(NCc1ccccc1)c1cc(-c2ccccc2)c2ccccc2n1 | 11500
Cc1c(C(=O)NCc2ccccc2)nc2ccccc2c1-c1ccccc1F | 1490
CN(Cc1ccccc1)C(=O)c1cc(-c2ccccc2)c2ccccc2c1 | 64
CCN(CC)Cc1c(C(=O)N(C)Cc2ccccc2)nc2ccccc2c1-c1ccccc1 | 12
CN(Cc1ccccc1)C(=O)c1cc(-c2ccccc2)c2ccccc2n1 | 38
Cc1c(C(=O)NCc2ccccc2)cc2ccccc2c1-c1ccccc1 | 6600
Cc1c(C(=O)NCc2ccccc2)nc2ccccc2c1-c1ccccc1 | 10300

Molecules with a lower IC50, results first:

IC50 [nM] | Compound
11 | Cc1c(C(=O)N(Cc2ccccc2)Cc2ccccc2)nc2ccccc2c1-c1ccccc1
9.8 | Cc1c(C(=O)N(C)Cc2ccccc2)cc2ccccc2c1-c1ccccc1
8.7 | CN(Cc1ccccc1)C(=O)c1nc2ccccc2c(-c2ccccc2)c1CO
4.6 | Cc1c(C(=O)N(C)Cc2ccccc2)nc2ccccc2c1-c1ccccc1
2.2 | Cc1c(C(=O)N(C)Cc2ccccc2)nc2ccccc2c1-c1ccccc1F
0.45 | CN(Cc1ccccc1)C(=O)c1nc2ccccc2c(-c2ccccc2)c1CCl

Source: ChEMBL document CHEMBL1145046, “Structure-activity relationships in carboxamide derivatives based on the targeted delivery of radionuclides and boron atoms by means of peripheral benzodiazepine receptor ligands” (J Med Chem, 2003)
